The structures appear in SMILES notation.

Experiment [1] concerns CCD-18Co cells (non-tumorigenic colon). Nature of the experiment: Sulforhodamine B (SRB) antiproliferative assay, CCD-18Co. Type of experiment: cell-based. To be noted: Homo sapiens, CCD-18Co non-tumorigenic, 48 h, mean ± SEM of four to six independent experiments. How it is done:
(§1) The antiproliferative properties of andrographolide and all prepared derivatives (2–26) were evaluated against a panel of different cancer cell lines, including human pancreatic ductal adenocarcinoma (PANC-1), colorectal adenocarcinoma (HCT116), melanoma (A375), breast adenocarcinoma (MCF-7) and a non-tumorigenic colon (CCD-18Co) cell line using the sulforhodamine B assay.
(§2) Human breast adenocarcinoma MCF-7, pancreatic ductal adenocarcinoma PANC-1, melanoma A375, and non-tumorigenic colon CCD-18Co cell lines were purchased from ATCC (Rockville, MD, USA). Human colorectal adenocarcinoma HCT116 cells were kindly provided by B. Vogelstein (The Johns Hopkins Kimmel Cancer Center, Baltimore, MD, USA). Tumor cells were routinely cultured in RPMI-1640 medium with UltraGlutamine from Biowest (VWR, Carnaxide, Portugal) supplemented with 10% fetal bovine serum (FBS) from Biowest (VWR, Carnaxide, Portugal), except for the PANC-1 cells, which were grown in DMEM (4.5 g/L glucose) with stable L-glutamine and sodium pyruvate and supplemented with 10% FBS. The non-tumorigenic CCD-18Co cells were cultured in EMEM (Lonza, VWR, Carnaxide, Portugal), supplemented with 10% FBS. All cells were incubated at 37 °C in a humidified atmosphere of 5% CO2. Routine mycoplasma testing was performed using the MycoAlert™ PLUS mycoplasma detection kit (Lonza).
(§3) For the evaluation of the compound effect on cell proliferation, human cell lines were seeded in 96-well plates at a density of 5.0 × 10^3 (HCT116, MCF-7, PANC-1, A375, and CCD-18Co) cells per well, for 24 h. Cells were then treated with serial dilutions of the compound (ranging from 0.63 to 30 µM), for an additional 48 h incubation period. The growth inhibitory effects were assessed by SRB assay, as described in [58], and the half-maximal inhibitory concentration (IC50 values) were determined for each cell line using the GraphPad Prism software version 7.0 (La Jolla, CA, USA). Culture medium containing a maximum of 0.05% dimethyl sulfoxide (DMSO) was used as negative control.

In experiment [2] the test system is PANC-1 cells (pancreatic ductal adenocarcinoma). Nature of the experiment: Sulforhodamine B (SRB) antiproliferative assay, PANC-1. Type of experiment: cell-based, human. To be noted: Homo sapiens; PANC-1, 48 h, SRB; mean ± SEM of four to six independent experiments. How it is done:
as §1, §2, §3
In general terms: Sulforhodamine B stains cellular protein and so reports cell mass.

Experiment [3] relates to HCT116 cells (colorectal adenocarcinoma). Nature of the experiment: Sulforhodamine B (SRB) antiproliferative assay, HCT116. The note with it: Homo sapiens, HCT-116, HCT116, 48 h, mean ± SEM of four to six independent experiments. Type of experiment: cell-based. How it is done: as §1, §2, §3
For experiment [4], the system named is MCF-7 cells (breast adenocarcinoma). Nature of the experiment: Sulforhodamine B (SRB) antiproliferative assay, MCF-7. To be noted: Homo sapiens, MCF7, MCF-7, 48 h, mean ± SEM of four to six independent experiments. It counts as cell-based. How it is done: as §1, §2, §3
The test system of another experiment is A375 cells (melanoma). Nature of the experiment: Sulforhodamine B (SRB) antiproliferative assay, A375. Type of experiment: cell-based. The note with it: Homo sapiens, A-375, A375, 48 h, mean ± SEM of four to six independent experiments. How it is done: as §1, §2, §3

`C=C1CC[C@@H]2[C@](C)(COC(C)=O)[C@H](OC(C)=O)CC[C@@]2(C)[C@@H]1C[C@H](C1=CCOC1=O)n1cc(-c2ccccc2)nn1` [Compound 10, (12R)-4-phenyl-1,2,3-triazole-3,19-diacetoxy-14-deoxy-andrographolide]: the half-maximal inhibitory concentration (IC50) (as a rule, the concentration needed to halve the response being measured) in experiment [1] amounted to 7.2 ± 0.6 µM; in experiment [2] it was 3.8 ± 0.7 µM; in experiment [3], 2.2 ± 0.1 µM; in experiment [4], 7.8 ± 0.8 µM; in the experiment with A375 cells (melanoma), 7.7 ± 1 µM.
As for `C=C1CC[C@@H]2[C@](C)(COC(C)=O)[C@H](OC(C)=O)CC[C@@]2(C)[C@@H]1C[C@@H](C1=CCOC1=O)n1cc(-c2ccccc2)nn1` [Compound 11, (12S)-4-phenyl-1,2,3-triazole-3,19-diacetoxy-14-deoxy-andrographolide], the IC50 is 3.3 ± 0.4 µM in experiment [1]; 3.4 ± 0.6 µM in experiment [2]; 1.9 ± 0.3 µM in experiment [3]; 4.2 ± 0.8 µM in experiment [4]; 8.2 ± 0.1 µM in the experiment on A375 cells (melanoma).
With `C=C1CC[C@@H]2[C@](C)(COC(C)=O)[C@H](OC(C)=O)CC[C@@]2(C)[C@@H]1C[C@H](C1=CCOC1=O)n1cc(-c2ccc(N)cc2)nn1` [Compound 13, (12R)-4-aniline-1,2,3-triazole-3,19-diacetoxy-14-deoxy-andrographolide], the half-maximal inhibitory concentration (IC50) in experiment [1] stood at 30 ± 2 µM; in experiment [2], 6.5 ± 0.4 µM; in experiment [3] it was 4.8 ± 1.3 µM; in experiment [4], 26 ± 3 µM; with A375 cells (melanoma), 6.8 ± 0.9 µM.
As for `C=C1CC[C@@H]2[C@](C)(COC(C)=O)[C@H](OC(C)=O)CC[C@@]2(C)[C@@H]1C[C@H](C1=CCOC1=O)n1cc(-c2ccc(C#N)cc2)nn1` [Compound 14, (12R)-4-benzonitrile-1,2,3-triazole-3,19-diacetoxy-14-deoxy-andrographolide], the IC50 in experiment [1] worked out at 3.7 ± 0.9 µM; in experiment [2] it was 2.5 ± 0.3 µM; in experiment [3], 2 ± 0.6 µM; in experiment [4] it was 7.9 ± 0.6 µM; in the experiment on A375 cells (melanoma) it was 1.7 ± 0.2 µM.
The like results for `C=C1CC[C@@H]2[C@](C)(COC(C)=O)[C@H](OC(C)=O)CC[C@@]2(C)[C@@H]1C[C@@H](C1=CCOC1=O)n1cc(-c2ccc(C#N)cc2)nn1` [Compound 15, (12S)-4-benzonitrile-1,2,3-triazole-3,19-diacetoxy-14-deoxy-andrographolide] were, in that order, 6.2 ± 1.2 µM, 3.3 ± 0.9 µM, 1.3 ± 0.1 µM, 5.6 ± 0.2 µM and 1.2 ± 0.2 µM.
Taken in the same sequence, the figures for `C=C1CC[C@@H]2[C@](C)(COC(C)=O)[C@H](OC(C)=O)CC[C@@]2(C)[C@@H]1C[C@H](C1=CCOC1=O)n1cc(-c2ccc(OC)cc2)nn1` [Compound 16, (12R)-4-(4-methoxyphenyl)-1,2,3-triazole-3,19-diacetoxy-14-deoxy-andrographolide] were 6.8 ± 1 µM, 2.3 ± 0.2 µM, 2.3 ± 0.9 µM, 9.3 ± 0.1 µM and 1.5 ± 0.2 µM.
With `C=C1CC[C@@H]2[C@](C)(COC(C)=O)[C@H](OC(C)=O)CC[C@@]2(C)[C@@H]1C[C@@H](C1=CCOC1=O)n1cc(-c2ccc(OC)cc2)nn1` [Compound 17, (12S)-4-(4-methoxyphenyl)-1,2,3-triazole-3,19-diacetoxy-14-deoxy-andrographolide], the IC50 in experiment [1] stood at 4.4 ± 0.9 µM; in experiment [2] it was 2.1 ± 0.1 µM; in experiment [3], 1.7 ± 0.5 µM; in experiment [4], 5.6 ± 0.2 µM; in the experiment with A375 cells (melanoma), 0.9 ± 0.1 µM.
The like results for `C=C1CC[C@@H]2[C@](C)(COC(C)=O)[C@H](OC(C)=O)CC[C@@]2(C)[C@@H]1C[C@H](C1=CCOC1=O)n1cc(-c2ccc(OC(F)(F)F)cc2)nn1` [Compound 18] were, in that order, 5.1 ± 0.1 µM, 3.5 ± 1.6 µM, 3.7 ± 0.5 µM, 9.5 ± 0.5 µM and 6.6 ± 0.8 µM.
The like results for `C=C1CC[C@@H]2[C@](C)(COC(C)=O)[C@H](OC(C)=O)CC[C@@]2(C)[C@@H]1C[C@@H](C1=CCOC1=O)n1cc(-c2ccc(OC(F)(F)F)cc2)nn1` [Compound 19] were, in that order, 6.6 ± 0.9 µM, 3.1 ± 0.8 µM, 4.1 ± 0.2 µM, 7.9 ± 1.5 µM and 7.1 ± 0.1 µM.
The like results for `C=C1CC[C@@H]2[C@](C)(COC(C)=O)[C@H](OC(C)=O)CC[C@@]2(C)[C@@H]1C[C@H](C1=CCOC1=O)n1cc(-c2ccc(-c3ccccc3)cc2)nn1` [Compound 20] were, in that order, 3.5 ± 0.3 µM, 3 ± 1.1 µM, 1.4 ± 0.3 µM, 28 ± 2 µM and 3.3 ± 1.3 µM.
For the compound `C=C1CC[C@@H]2[C@](C)(COC(C)=O)[C@H](OC(C)=O)CC[C@@]2(C)[C@@H]1C[C@@H](C1=CCOC1=O)n1cc(-c2ccc(-c3ccccc3)cc2)nn1` [Compound 21], the IC50 turned out to be 4.4 ± 0.8 µM in experiment [1]; 3.5 ± 0.3 µM in experiment [2]; 1.2 ± 0.2 µM in experiment [3]; 10.4 ± 0.7 µM in experiment [4]; 1.3 ± 0.3 µM in the experiment on A375 cells (melanoma).
As for `C=C1CC[C@@H]2[C@](C)(COC(C)=O)[C@H](OC(C)=O)CC[C@@]2(C)[C@@H]1C[C@H](C1=CCOC1=O)n1cc(-c2ccncc2)nn1` [Compound 22, (12R)-4-(4-pyridine)-1,2,3-triazole-3,19-diacetoxy-14-deoxy-andrographolide], the IC50 is 3.2 ± 0.9 µM in experiment [1]; 5 ± 0.4 µM in experiment [2]; 1.6 ± 0.3 µM in experiment [3]; 5.9 ± 0.1 µM in experiment [4]; 1.3 ± 0.2 µM with A375 cells (melanoma).
Taken in the same sequence, the figures for `C=C1CC[C@@H]2[C@](C)(COC(C)=O)[C@H](OC(C)=O)CC[C@@]2(C)[C@@H]1C[C@@H](C1=CCOC1=O)n1cc(-c2ccncc2)nn1` [Compound 23, (12S)-4-(4-pyridine)-1,2,3-triazole-3,19-diacetoxy-14-deoxy-andrographolide] were 4.1 ± 0.9 µM, 6.3 ± 1.9 µM, 2.8 ± 0.8 µM, 11 ± 0.2 µM and 3.3 ± 1 µM.
The like results for `C=C1CC[C@@H]2[C@](C)(COC(C)=O)[C@H](OC(C)=O)CC[C@@]2(C)[C@@H]1C[C@H](C1=CCOC1=O)n1cc(-c2ccccn2)nn1` [Compound 24, (12R)-4-pyridine-1,2,3-triazole-3,19-diacetoxy-14-deoxy-andrographolide] were, in that order, 4.6 ± 1.4 µM, 1.8 ± 0.1 µM, 6.7 ± 3.2 µM, 7 ± 0.2 µM and 1.3 ± 0.3 µM.
Take `C=C1CC[C@@H]2[C@](C)(COC(C)=O)[C@H](OC(C)=O)CC[C@@]2(C)[C@@H]1C[C@H](C1=CCOC1=O)n1cc(-c2ccsc2)nn1` [Compound 25, (12R)-4-(3-thiophene)-1,2,3-triazole-3,19-diacetoxy-14-deoxy-andrographolide]: the IC50 was determined as 8.9 ± 0.2 µM in experiment [1]; 4.5 ± 2 µM in experiment [2]; 1.7 ± 0.3 µM in experiment [3]; 6.9 ± 0.1 µM in experiment [4]; 1.8 ± 0.3 µM with A375 cells (melanoma).
Taken in the same sequence, the figures for `C=C1CC[C@@H]2[C@](C)(COC(C)=O)[C@H](OC(C)=O)CC[C@@]2(C)[C@@H]1C[C@@H](C1=CCOC1=O)n1cc(-c2ccsc2)nn1` [Compound 26, (12S)-4-(3-thiophene)-1,2,3-triazole-3,19-diacetoxy-14-deoxy-andrographolide] were 6.2 ± 1.4 µM, 4.3 ± 1.4 µM, 1.3 ± 0.1 µM, 6.1 ± 0.2 µM and 1.4 ± 0.1 µM.
Taken in the same sequence, the figures for `COc1cc([C@@H]2c3cc4c(cc3[C@@H](O[C@@H]3O[C@@H]5CO[C@@H](C)O[C@H]5[C@H](O)[C@H]3O)[C@H]3COC(=O)[C@H]23)OCO4)cc(OC)c1O` [Etoposide, reference compound] were 0.76 ± 0.01 µM, 2.8 ± 0.05 µM, 0.65 ± 0.09 µM, 1.8 ± 0.03 µM and 0.82 ± 0.07 µM.

The record behind these values is publication PMC12114840, “Exploring the Anticancer Properties of 1,2,3-Triazole-Substituted Andrographolide Derivatives” (Pharmaceuticals, 2025).
